We go through 9 compounds from US8124793B2, “Derivatives of ethylene methanedisulfonate as cancer chemotherapeutic agents” (priority 2007, dated 2012).

Holding throughout (format): cell-based
One experiment deals with CCRF-CEM. In words: NCI screen, growth of human tumor cells: Leukemia CCRF-CEM. The conditions noted are these: CCRF-CEM (Leukemia), 10^−4 molar. As to the method: (§1) In the NCI screening process, each compound was tested and described by a minimum of 60 data points. The test data include, but are not limited to the type of cancer, the molar concentration used in the screen, and the percent growth of the cancer. In some cases, NMR and elemental analysis were used for structural assignment.

The subject of a further experiment is K562. In words: NCI screen, growth of human tumor cells: Leukemia K562. The following applies: K562 (Leukemia), 10^−4 molar. As to the method: as §1
For the next experiment, the system named is MOLT-4. In words: NCI screen, growth of human tumor cells: Leukemia MOLT-4. The following applies: MOLT-4 (Leukemia), 10^−4 molar. As to the method: as §1
For another experiment, the system named is NCI-H460. In words: NCI screen, growth of human tumor cells: Non-Small Cell Lung NCI-H460. The following applies: NCI-H460 (Non-Small Cell Lung), 10^−4 molar. The protocol:
as §1

In the next experiment the test system is SF-268. In words: NCI screen, growth of human tumor cells: CNS Cancer SF-268. The conditions noted are these: SF-268 (CNS Cancer), 10^−4 molar. The protocol:
as §1

The next experiment deals with SNB-19. Nature of the experiment: NCI screen, growth of human tumor cells: CNS Cancer SNB-19. The protocol: as §1
The next experiment relates to SF-539. In words: NCI screen, growth of human tumor cells: CNS Cancer SF-539. The conditions noted are these: SF-539 (CNS Cancer), 10^−4 molar. The protocol:
as §1

The next experiment deals with SNB-75. Nature of the experiment: NCI screen, growth of human tumor cells: CNS Cancer SNB-75. The following applies: SNB-75 (CNS Cancer), 10^−4 molar. As to the method:
as §1

The test system of another experiment is U-251. Nature of the experiment: NCI screen, growth of human tumor cells: CNS Cancer U-251. The conditions noted are these: U-251 (CNS Cancer), 10^−4 molar. As to the method:
as §1

The test system of another experiment is UACC-62. In words: NCI screen, growth of human tumor cells: Melanoma UACC-62. The following applies: UACC-62 (Melanoma), 10^−4 molar. As to the method: as §1
For the next experiment, the system named is ACHN. In words: NCI screen, growth of human tumor cells: Renal Cancer ACHN. The conditions noted are these: ACHN (Renal Cancer), 10^−4 molar. As to the method: as §1
For another experiment, the system named is CAKI-1. Nature of the experiment: NCI screen, growth of human tumor cells: Renal Cancer CAKI-1. The conditions noted are these: CAKI-1 (Renal Cancer), 10^−4 molar. As to the method: as §1
A further experiment relates to human cancer cells. In words: NCI screen summary over the cancers tested (negative growth of human cancer cells). The conditions noted are these: 10^−4 M conc.; cancers with negative growth / cancers tested. As to the method:
as §1
The derivatives in the tables are grouped using the same category as in the tables 1-6.

For the next experiment, the system named is RPMI-8226. Nature of the experiment: NCI screen, growth of human tumor cells: Leukemia RPMI-8226. The conditions noted are these: RPMI-8226 (Leukemia), 10^−4 molar. As to the method: as §1
The test system of another experiment is NCI-H226. In words: NCI screen, growth of human tumor cells: Non-Small Cell Lung NCI-H226. The conditions noted are these: NCI-H226 (Non-Small Cell Lung), 10^−4 molar. The protocol: as §1
The test system of another experiment is SR. In words: NCI screen, growth of human tumor cells: Leukemia SR. The conditions noted are these: for % Growth: SR. As to the method: as §1
For the next experiment, the system named is HCC-2998. In words: NCI screen, growth of human tumor cells: HCC-2998 (listed under Non-Small Cell Lung). The conditions noted are these: HCC-2998 (under Non-Small Cell Lung), 10^−4 molar. The protocol:
as §1

The subject of the next experiment is 786-0. In words: NCI screen, growth of human tumor cells: Renal Cancer 786-0. The conditions noted are these: 786-0 (Renal Cancer), 10^−4 molar. As to the method: as §1
Another experiment has as its system KD488. In words: NCI screen, growth of human tumor cells: Lymphoma KD488.
The next experiment relates to OVCAR-3. Nature of the experiment: NCI screen, growth of human tumor cells: Ovarian Cancer OVCAR-3. The following applies: OVCAR-3 (Ovarian Cancer), 10^−4 molar. The protocol:
as §1

The subject of a further experiment is RXF-393. Nature of the experiment: NCI screen, growth of human tumor cells: Renal Cancer RXF-393. The protocol: as §1
The test system of a further experiment is HCT-116. Nature of the experiment: NCI screen, growth of human tumor cells: Colon Cancer HCT-116. The following applies: HCT-116 (Colon Cancer), 10^−4 molar. The protocol:
as §1

The test system of another experiment is LOXIMVI. Nature of the experiment: NCI screen, growth of human tumor cells: Melanoma LOXIMVI. The conditions noted are these: LOXIMVI (Melanoma), 10^−4 molar. The protocol:
as §1

The subject of another experiment is PC-3. In words: NCI screen, growth of human tumor cells: Prostate Cancer PC-3. The conditions noted are these: PC-3 (Prostate Cancer), 10^−4 molar. The protocol:
as §1

For another experiment, the system named is HOP-18. Nature of the experiment: NCI screen, growth of human tumor cells: Non-Small Cell Lung HOP-18. As to the method:
as §1

The subject of the next experiment is HOP-92. Nature of the experiment: NCI screen, growth of human tumor cells: Non-Small Cell Lung HOP-92. As to the method:
as §1

The test system of a further experiment is NCI-H522. In words: NCI screen, growth of human tumor cells: Non-Small Cell Lung NCI-H522. The protocol: as §1
The subject of another experiment is MALME-3M. Nature of the experiment: NCI screen, growth of human tumor cells: Melanoma MALME-3M. The conditions noted are these: MALME-3M, 10^−4 molar. As to the method: as §1

As to `CC1S(=O)(=O)OCCOS1(=O)=O` [NSC 372239], the “percent of growth of human tumor cells” value in the experiment on CCRF-CEM is reported as −6%; in the experiment on K562, 12%; with MOLT-4 it was 12%; in the experiment with NCI-H460, 2%; in the experiment on SF-268, 29%; with SNB-19 (SNB-19 (CNS Cancer), 10^−4 molar) it was 26%. In addition, the “percent of growth of human tumor cells” value in the experiment on SF-539 was 28%; in the experiment on SNB-75 it was 28%; in the experiment on U-251, 16%; with UACC-62, −14%; with ACHN, 20%; in the experiment with CAKI-1, 20%. Further, in the experiment on human cancer cells, the “Percentage of cancers showing negative growth cancers tested” value (“Percentage” below) was 2/12 = 17%.

On to `O=S(=O)([O-])OCCCC1S(=O)(=O)OCCOS1(=O)=O.[Na+]` [NSC 674994, butane-1-[hydroxyhydrogensulfate]-4,4-[ethylenedisulfonate]], for which the “% Growth” value in the experiment with SNB-19 (SNB-19, 10^−4 molar) is given as 36%; in the experiment on SNB-19 (SNB-19, 10^−5 molar), 45%; in the experiment with SNB-19 (SNB-19, 10^−6 molar), 47%; in the experiment on SNB-19 (SNB-19, 10^−7 molar), 73%; in the experiment with SNB-19 (SNB-19, 10^−8 molar), 67%. In the experiment on human cancer cells, the “Percentage” value was 10^−4 M conc. = 0/1 = 0%.

In the case of `O=S1(=O)OCCOS(=O)(=O)C1(Cl)Cl` [NSC 648307], the “percent of growth of human tumor cells” value was found to be 29% in the experiment on CCRF-CEM; 21% in the experiment with RPMI-8226; 23% in the experiment on NCI-H226; 7% with UACC-62; 23% in the experiment on CAKI-1. The “Percentage” value in the experiment with human cancer cells is 10^−4 M conc. = 0/5 = 0%.

Take `CC1(C)OCC(COC(=O)C(=O)OC(C(=O)OCC2COC(C)(C)O2)=C2S(=O)(=O)OCCOS2(=O)=O)O1` (centres unmarked) [NSC 737275]: the “percent of growth of human tumor cells” value in the experiment on SR (SR (Leukemia), 10^−4 molar) is listed as 7%; in the experiment with HCC-2998 it was −12%; in the experiment with SF-268 it was 24%; in the experiment with SF-539, 15%; in the experiment on 786-0, 17%. The “Percentage” value in the experiment with human cancer cells is recorded as 10^−4 M conc. = 1/5 = 20%.

In the case of `O=C(c1cccc2ccccc12)C1(Br)S(=O)(=O)OCCOS1(=O)=O` [compound 679048], the “% Growth” value amounted to 54% in the experiment on KD488 (KD488, 10^−4 molar); 51% in the experiment on KD488 (KD488, 10^−5 molar); 34% with KD488 (KD488, 10^−6 molar); 100% in the experiment on KD488 (KD488, 10^−7 molar); 52% in the experiment on KD488 (KD488, 10^−8 molar).

As for `C[Si](C)(OCCS(=O)(=O)O)OC(=C1S(=O)(=O)OCCOS1(=O)=O)c1cccc2ccccc12.[Na+]` [NSC 679049], the “percent of growth of human tumor cells” value in the experiment on OVCAR-3 came to 22%; with RXF-393 (RXF-393 (Renal Cancer), 10^−4 molar), 23%.

Turning to `O=S1(=O)OCCOS(=O)(=O)[C-]1S(=O)(=O)c1cccc2ccccc12.[Na+]` [NSC 679044], the “percent of growth of human tumor cells” value in the experiment on K562 is reported as 15%; with HCT-116, −52%; in the experiment on LOXIMVI, 23%; in the experiment on PC-3 it was 23%. Further, in the experiment on human cancer cells, the “Percentage” value was 10^−4 M conc. = 1/4 = 25%.

Take `COC=C1S(=O)(=O)OCCOS1(=O)=O` [NSC 701691, ethylene 2-methoxy-1,1-ethylenedisulfonate]: the “percent of growth of human tumor cells” value in the experiment with CCRF-CEM is 24%. Besides, the “% Growth” value amounted to 12% with SR (10^−4 molar); 49% in the experiment on SR (10^−5 molar); 44% in the experiment with HOP-18 (HOP-18, 10^−4 molar); 56% with HOP-18 (HOP-18, 10^−5 molar); 92% with HOP-18 (HOP-18, 10^−6 molar); 71% with HOP-18 (HOP-18, 10^−7 molar). Also, the “% Growth” value in the experiment with HOP-18 (HOP-18, 10^−8 molar) worked out at 58%; in the experiment on HOP-92 (HOP-92, 10^−4 molar), 44%; in the experiment with HOP-92 (HOP-92, 10^−5 molar) it was 56%; in the experiment on HOP-92 (HOP-92, 10^−6 molar), 92%; in the experiment with HOP-92 (HOP-92, 10^−7 molar), 71%; in the experiment on HOP-92 (HOP-92, 10^−8 molar) it was 58%. The “% Growth” value is recorded as 66% in the experiment with NCI-H522 (NCI-H522, 10^−4 molar); 44% in the experiment with NCI-H522 (NCI-H522, 10^−5 molar); 67% in the experiment with NCI-H522 (NCI-H522, 10^−6 molar); 48% in the experiment on NCI-H522 (NCI-H522, 10^−7 molar); 73% in the experiment with NCI-H522 (NCI-H522, 10^−8 molar); 23% in the experiment with RXF-393 (RXF-393, 10^−4 molar). Also, the “% Growth” value in the experiment with RXF-393 (RXF-393, 10^−5 molar) worked out at 55%; in the experiment with RXF-393 (RXF-393, 10^−6 molar), 60%; in the experiment with RXF-393 (RXF-393, 10^−7 molar), 68%; in the experiment with RXF-393 (RXF-393, 10^−8 molar), 63%. Also, the “Percentage” value with human cancer cells is on record as 10^−4 M conc. = 0/6 = 0%.

For `COC(=O)c1cc(/C=C/C(=O)Cc2ccccc2)cn1S(=O)(=O)c1ccccc1` [compound 679534], in the experiment on MALME-3M, the “% Growth” value is listed as −88%.
